Source: PMC7782793, “Hydroxamic acid-modified peptide microarrays for profiling isozyme-selective interactions and inhibition of histone deacetylases” (Nature Communications, 2021)
Values joined by “and” are separate entries in the source; they are usually repeats but may differ in a detail not shown here. Identical values can stand only once. Marks after values point to notes of the source that are not given here. Non-standard residues stand in square brackets, D forms with d. Residues, ends and D or L forms follow the SMILES beside them. *: point of attachment. Asu = N[C@@H](CCCCCC(=O)O)C(=O)O; NHOH = ON*

Key:
HDAC3/NCoR2 [1] = target: T1, HDAC3/NCoR2 (Homo sapiens, UniProt O15379); test: Recombinant HDAC µSPOT microarray binding assay;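 also: peptide spots on cellulose slides incubated with rising HDAC enzyme concentrations, imaged together, four-parameter logistic fit, EC50 is enzyme concentration giving half-maximal binding signal, two experiments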
T1 construct: HDAC3/NCoR2 (full length, C-terminal His tag, NCoR2 N-terminal GST tag); purchased BPS Bioscience 50003
T1 sequence (O15379 whole entry): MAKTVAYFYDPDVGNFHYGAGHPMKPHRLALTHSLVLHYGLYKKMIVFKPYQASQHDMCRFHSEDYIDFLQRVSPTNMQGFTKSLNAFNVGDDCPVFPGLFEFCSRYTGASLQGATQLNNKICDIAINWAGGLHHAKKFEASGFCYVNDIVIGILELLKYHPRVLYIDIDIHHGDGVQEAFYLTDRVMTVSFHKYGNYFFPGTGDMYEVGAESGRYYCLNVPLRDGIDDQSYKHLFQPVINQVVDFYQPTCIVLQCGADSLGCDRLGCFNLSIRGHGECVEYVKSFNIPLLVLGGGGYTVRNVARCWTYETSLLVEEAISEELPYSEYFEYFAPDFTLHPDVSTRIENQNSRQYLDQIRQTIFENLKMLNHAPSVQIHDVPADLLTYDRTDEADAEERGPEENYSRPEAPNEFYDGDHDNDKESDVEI
T1 sequence (Q9Y618 389-480 partner limits assumed): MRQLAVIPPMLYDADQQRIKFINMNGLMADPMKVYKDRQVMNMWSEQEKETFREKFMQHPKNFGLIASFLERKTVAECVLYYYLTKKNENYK
Procedure: Experiments were performed twice, data were obtained with Array Analyze software (Active Motif), and data analysis and representation were performed with the GraphPad Prism 7 software. Outliers were curated manually and data were fitted to nonlinear regression [log(agonist) vs. response—variable slope (four parameters)]. […] Non-sigmoidal curves were denoted as not determined (N.D.) The pEC50 values were determined as the concentration of HDAC enzyme required for half-maximal binding signal.

HDAC8 [2] = target: T2, HDAC8 (Homo sapiens, UniProt Q9BY41); test: HDAC inhibition assay (fluorogenic, Ac-Leu-Gly-Lys(Tfa)-AMC); assay type: biochemical; conditions: for HDAC8 dose-response data (relative enzyme activity, replicate values), Fig. 6 + S. Fig. 10: two replicate columns per inhibitor; for HDAC8 dose-response data (relative enzyme activity), Fig. 6 + S. Fig. 10: duplicate columns
T2 construct: HDAC8 (full length, C-terminal His tag, BPS Bioscience, cat. #: 50008); purchased BPS Bioscience 50008
T2 sequence (Q9BY41 1-377): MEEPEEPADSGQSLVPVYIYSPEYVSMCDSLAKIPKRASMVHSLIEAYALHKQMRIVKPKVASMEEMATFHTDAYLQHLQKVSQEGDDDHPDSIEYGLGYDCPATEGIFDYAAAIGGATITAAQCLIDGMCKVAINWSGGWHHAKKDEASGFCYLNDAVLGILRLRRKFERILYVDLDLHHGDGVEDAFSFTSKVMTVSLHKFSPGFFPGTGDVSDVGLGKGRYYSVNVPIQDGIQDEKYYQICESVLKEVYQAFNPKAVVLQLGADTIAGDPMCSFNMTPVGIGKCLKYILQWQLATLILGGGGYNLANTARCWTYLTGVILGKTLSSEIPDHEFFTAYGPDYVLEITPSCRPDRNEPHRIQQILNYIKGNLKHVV

HDAC3/NCoR2 [3] = target: T1, HDAC3/NCoR2; test: HDAC inhibition assay (fluorogenic, Ac-Leu-Gly-Lys(Ac)-AMC); assay type: biochemical; conditions: for HDAC3 dose-response data (relative enzyme activity), Fig. 6 + S. Fig. 10: duplicate columns
HDAC8 [4] = target: T2, HDAC8; test: Recombinant HDAC µSPOT microarray binding assay
HDAC1 [5] = target: T3, HDAC1 (Homo sapiens, UniProt Q13547); test: HDAC inhibition assay (fluorogenic, Ac-Leu-Gly-Lys(Ac)-AMC); assay type: biochemical; conditions: for HDAC1 dose-response data (relative enzyme activity), Fig. 6 + S. Fig. 10: duplicate columns
T3 construct: HDAC1 (full length, C-terminal His tag, C-terminal FLAG tag, BPS Bioscience, cat. #: 50051); FLAG (C); purchased BPS Bioscience 50051
T3 sequence (Q13547 whole entry): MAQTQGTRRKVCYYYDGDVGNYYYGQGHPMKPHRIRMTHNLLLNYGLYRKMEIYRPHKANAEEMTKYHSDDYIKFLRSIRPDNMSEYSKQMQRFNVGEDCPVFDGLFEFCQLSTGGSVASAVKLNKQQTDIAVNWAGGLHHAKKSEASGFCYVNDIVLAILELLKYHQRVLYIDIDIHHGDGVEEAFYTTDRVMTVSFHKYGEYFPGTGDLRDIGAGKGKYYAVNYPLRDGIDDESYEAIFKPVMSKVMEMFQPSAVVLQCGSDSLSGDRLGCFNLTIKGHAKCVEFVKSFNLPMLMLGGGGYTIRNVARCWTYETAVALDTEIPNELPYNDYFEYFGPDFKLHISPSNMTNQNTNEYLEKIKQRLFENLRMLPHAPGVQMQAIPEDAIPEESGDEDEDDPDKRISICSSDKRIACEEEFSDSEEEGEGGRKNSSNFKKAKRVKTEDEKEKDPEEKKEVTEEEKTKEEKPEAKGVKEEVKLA

HDAC2 = target: T4, HDAC2 (Homo sapiens, UniProt Q92769); test: as above; assay type: biochemical; conditions: for HDAC2 dose-response data (relative enzyme activity), Fig. 6 + S. Fig. 10: duplicate columns
T4 construct: HDAC2 (full length, C-terminal His tag, BPS Bioscience, cat. #: 50002); purchased BPS Bioscience 50002
T4 sequence (Q92769 whole entry): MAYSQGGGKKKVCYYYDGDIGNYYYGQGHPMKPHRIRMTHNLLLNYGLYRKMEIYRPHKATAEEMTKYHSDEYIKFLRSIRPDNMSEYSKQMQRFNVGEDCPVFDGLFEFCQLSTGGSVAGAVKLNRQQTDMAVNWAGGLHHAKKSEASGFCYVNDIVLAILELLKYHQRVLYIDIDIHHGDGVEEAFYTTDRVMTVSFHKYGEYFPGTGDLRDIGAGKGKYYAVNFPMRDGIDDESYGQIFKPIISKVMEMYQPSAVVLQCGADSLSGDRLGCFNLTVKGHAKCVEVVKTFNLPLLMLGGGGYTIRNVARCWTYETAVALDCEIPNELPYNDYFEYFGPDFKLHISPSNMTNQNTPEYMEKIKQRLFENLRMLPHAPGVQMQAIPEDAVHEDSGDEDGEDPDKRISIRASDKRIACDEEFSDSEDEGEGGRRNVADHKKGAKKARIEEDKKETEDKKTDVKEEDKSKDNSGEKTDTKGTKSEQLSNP

HDACs 1‒3 and 8 = test: HDAC inhibition assays, statements across several class I isozymes; assay type: biochemical, human; conditions: resynthesized peptides, from Ki
HDAC1 [6] = target: T3, HDAC1; test: Recombinant HDAC µSPOT microarray binding assay
HDAC6 = target: T5, HDAC6 (Homo sapiens, UniProt Q9UBN7); test: HDAC inhibition assay (fluorogenic, Ac-Leu-Gly-Lys(Ac)-AMC); assay type: biochemical; conditions: HDAC6, replicates
T5 construct: HDAC6 (full length, BPS Bioscience, cat. #: 50056); purchased BPS Bioscience 50056
T5 sequence (Q9UBN7 1-1215): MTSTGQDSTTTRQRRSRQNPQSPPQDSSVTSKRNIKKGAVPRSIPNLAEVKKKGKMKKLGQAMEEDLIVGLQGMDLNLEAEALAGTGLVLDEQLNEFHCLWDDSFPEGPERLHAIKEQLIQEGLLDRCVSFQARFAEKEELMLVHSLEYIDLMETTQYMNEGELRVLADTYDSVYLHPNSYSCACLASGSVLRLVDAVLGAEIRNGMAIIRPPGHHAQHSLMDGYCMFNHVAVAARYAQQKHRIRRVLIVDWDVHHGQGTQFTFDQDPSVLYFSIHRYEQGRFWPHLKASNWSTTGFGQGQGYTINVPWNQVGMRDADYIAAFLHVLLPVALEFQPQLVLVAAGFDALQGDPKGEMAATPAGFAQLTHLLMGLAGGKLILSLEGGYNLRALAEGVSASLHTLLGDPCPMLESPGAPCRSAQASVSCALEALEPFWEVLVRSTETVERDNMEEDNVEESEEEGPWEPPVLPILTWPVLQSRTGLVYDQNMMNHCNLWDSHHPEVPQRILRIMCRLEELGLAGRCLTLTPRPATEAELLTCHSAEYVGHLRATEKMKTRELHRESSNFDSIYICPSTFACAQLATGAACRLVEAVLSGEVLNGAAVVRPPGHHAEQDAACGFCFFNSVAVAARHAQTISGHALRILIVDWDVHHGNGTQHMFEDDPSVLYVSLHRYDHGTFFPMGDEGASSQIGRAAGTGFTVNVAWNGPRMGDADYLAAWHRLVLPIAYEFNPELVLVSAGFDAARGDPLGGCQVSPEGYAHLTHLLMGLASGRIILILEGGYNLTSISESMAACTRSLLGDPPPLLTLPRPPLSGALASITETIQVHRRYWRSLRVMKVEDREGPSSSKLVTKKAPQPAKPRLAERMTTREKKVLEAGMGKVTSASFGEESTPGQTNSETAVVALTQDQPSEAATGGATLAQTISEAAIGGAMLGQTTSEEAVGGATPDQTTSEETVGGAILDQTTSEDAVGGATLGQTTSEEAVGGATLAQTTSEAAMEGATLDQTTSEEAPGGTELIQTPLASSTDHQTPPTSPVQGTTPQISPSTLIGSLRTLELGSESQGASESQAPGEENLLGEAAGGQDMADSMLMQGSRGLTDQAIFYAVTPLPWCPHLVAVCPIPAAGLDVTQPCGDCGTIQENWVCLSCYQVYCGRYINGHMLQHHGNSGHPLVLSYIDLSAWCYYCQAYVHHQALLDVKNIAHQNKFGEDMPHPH

[7] = log[inhibitor(M)] -10,5850266520292*, whole line marked with asterisks

Compound: CC(=O)NCC(=O)NCC(=O)N[C@@H](CCCCCC(=O)NO)C(=O)N[C@@H](C)C(=O)N[C@@H](CCCNC(=N)N)C(=O)N[C@@H](C)C(=O)N[C@@H](CCCCN)C(=O)N[C@@H](C)C(=O)N[C@@H](CCCCN)C(=O)N[C@H](C(=O)N[C@@H](CCCNC(=N)N)C(=O)N[C@@H](CO)C(=O)N[C@@H](CO)C(=O)N[C@@H](CCCNC(=N)N)C(=O)N[C@@H](C)C(=O)NCC(=O)N[C@@H](Cc1c[nH]c2ccccc12)C(N)=O)[C@@H](C)O [9a] (Ac-GG[Asu](NHOH)ARAKAKTRSSRAGW-NH2)
- EC50 (HDAC3/NCoR2 [1]): 6.03 nM
- Ki (HDAC8 [2]): 5570 ± 130 nM
- HDAC8 dose-response data (relative enzyme activity, replicate values), Fig. 6 + S. Fig. 10 (HDAC8 [2]; Inhibitor conc [M] -8.49485 (log)): 101.387 and 98.0647
- HDAC8 dose-response data (relative enzyme activity, replicate values), Fig. 6 + S. Fig. 10 (HDAC8 [2]; Inhibitor conc [M] -9.19382 (log)): 105.308 and 102.184
- HDAC8 dose-response data (relative enzyme activity, replicate values), Fig. 6 + S. Fig. 10 (HDAC8 [2]; Inhibitor conc [M] given as -7.09691 (log)): 100.377 and 94.2492
- HDAC8 dose-response data (relative enzyme activity, replicate values), Fig. 6 + S. Fig. 10 (HDAC8 [2]; Inhibitor conc [M] given as -7.79588 (log)): 101.512 and 95.1709
- HDAC8 dose-response data (relative enzyme activity, replicate values), Fig. 6 + S. Fig. 10 (HDAC8 [2]; Inhibitor conc [M] given as -9.89279 (log)): 102.446 and 100.014
- HDAC8 dose-response data (relative enzyme activity, replicate values), Fig. 6 + S. Fig. 10 (HDAC8 [2]; Inhibitor conc [M] given as -10.585 (log)): 102,003* and 99,4628*
- HDAC8 dose-response data (relative enzyme activity), Fig. 6 + S. Fig. 10 (HDAC8 [2]; Inhibitor conc [M] -4.30103): 8.643 and 13.2074
- HDAC8 dose-response data (relative enzyme activity), Fig. 6 + S. Fig. 10 (HDAC8 [2]; Inhibitor conc [M] -5): 41.9349 and 42.6215
- HDAC8 dose-response data (relative enzyme activity), Fig. 6 + S. Fig. 10 (HDAC8 [2]; Inhibitor conc [M] -5.69897): 76.1615 and 76.0658
- HDAC8 dose-response data (relative enzyme activity), Fig. 6 + S. Fig. 10 (HDAC8 [2]; Inhibitor conc [M] -6.39794): 95.4429 and 93.9691
- Ki (HDAC3/NCoR2 [3]): 7.66 ± 0.07 nM
- HDAC3 dose-response data (relative enzyme activity), Fig. 6 + S. Fig. 10 (HDAC3/NCoR2 [3]; log[inhibitor(M)] -4.30103): 0.3821 and 0.6391
- HDAC3 dose-response data (relative enzyme activity), Fig. 6 + S. Fig. 10 (HDAC3/NCoR2 [3]; log[inhibitor(M)] -5): 2.293 and 2.409
- HDAC3 dose-response data (relative enzyme activity), Fig. 6 + S. Fig. 10 (HDAC3/NCoR2 [3]; log[inhibitor(M)] -5.69897): 8.406 and 7.571
- HDAC3 dose-response data (relative enzyme activity), Fig. 6 + S. Fig. 10 (HDAC3/NCoR2 [3]; log[inhibitor(M)] -6.39794): 24.6725 and 18.9774
- HDAC3 dose-response data (relative enzyme activity), Fig. 6 + S. Fig. 10 (HDAC3/NCoR2 [3]; log[inhibitor(M)] -7.09691): 37.2271 and 35.3982
- HDAC3 dose-response data (relative enzyme activity), Fig. 6 + S. Fig. 10 (HDAC3/NCoR2 [3]; log[inhibitor(M)] -7.79588): 64.8472 and 61.8977
- HDAC3 dose-response data (relative enzyme activity), Fig. 6 + S. Fig. 10 (HDAC3/NCoR2 [3]; log[inhibitor(M)] -8.49485): 94.5961 and 96.0669
- HDAC3 dose-response data (relative enzyme activity), Fig. 6 + S. Fig. 10 (HDAC3/NCoR2 [3]; log[inhibitor(M)] -9.19382): 98.4716 and 100.59
- HDAC3 dose-response data (relative enzyme activity), Fig. 6 + S. Fig. 10 (HDAC3/NCoR2 [3]; log[inhibitor(M)] -9.89279): 99.7271 and 104.621
- HDAC3 dose-response data (relative enzyme activity), Fig. 6 + S. Fig. 10 (HDAC3/NCoR2 [3]; [7]): 100,6* and 100,492*
- EC50 (HDAC8 [4]): > 25.1 nM
- Ki (HDAC1 [5]): 31.1 ± 0.2 nM
- HDAC1 dose-response data (relative enzyme activity), Fig. 6 + S. Fig. 10 (HDAC1 [5]; log[inhibitor(M)] -5.69897): 7.627 and 13.3733
- HDAC1 dose-response data (relative enzyme activity), Fig. 6 + S. Fig. 10 (HDAC1 [5]; log[inhibitor(M)] -6.39794): 29.353 and 31.2435
- HDAC1 dose-response data (relative enzyme activity), Fig. 6 + S. Fig. 10 (HDAC1 [5]; log[inhibitor(M)] -7.09691): 58.5172 and 64.5613
- HDAC1 dose-response data (relative enzyme activity), Fig. 6 + S. Fig. 10 (HDAC1 [5]; log[inhibitor(M)] -7.79588): 95.7003 and 88.0669
- HDAC1 dose-response data (relative enzyme activity), Fig. 6 + S. Fig. 10 (HDAC1 [5]; log[inhibitor(M)] -8.49485): 105.543 and 108.963
- HDAC1 dose-response data (relative enzyme activity), Fig. 6 + S. Fig. 10 (HDAC1 [5]; log[inhibitor(M)] -9.19382): 98.3062 and 98.503
- HDAC1 dose-response data (relative enzyme activity), Fig. 6 + S. Fig. 10 (HDAC1 [5]; log[inhibitor(M)] -9.89279): 101.14 and 97.4578
- HDAC1 dose-response data (relative enzyme activity), Fig. 6 + S. Fig. 10 (HDAC1 [5]; [7]): 103,131* and 101,221*
- HDAC2 dose-response data (relative enzyme activity), Fig. 6 + S. Fig. 10 (HDAC2; log[inhibitor(M)] -5): 5.281 and 8.057
- HDAC2 dose-response data (relative enzyme activity), Fig. 6 + S. Fig. 10 (HDAC2; log[inhibitor(M)] -5.69897): 15.9037 and 16.112
- HDAC2 dose-response data (relative enzyme activity), Fig. 6 + S. Fig. 10 (HDAC2; log[inhibitor(M)] -7.79588): 105.562 and 90.7957
- HDAC2 dose-response data (relative enzyme activity), Fig. 6 + S. Fig. 10 (HDAC2; [7]): 99,9428* and 99,2519*
- Ki (HDAC2; resynthesized peptide in solution, Cheng-Prusoff, n = 2): 48 ± 0.5 nM
- selectivity against HDACs 1‒3 versus HDAC8 (HDACs 1‒3 and 8): over 100 fold
- EC50 (HDAC1 [6]): > 25.1 nM
- residual enzymatic activity relative to control wells (HDAC6; log[inhibitor(M)] -4.30103): 0.99 and 1.47
- residual enzymatic activity relative to control wells (HDAC6; log[inhibitor(M)] -5): 0.54 and 1.15
- residual enzymatic activity relative to control wells (HDAC6; log[inhibitor(M)] -5.69897): 2.15 and 1.92
- residual enzymatic activity relative to control wells (HDAC6; log[inhibitor(M)] -6.39794): 7.05 and 5.56
- residual enzymatic activity relative to control wells (HDAC6; log[inhibitor(M)] -7.09691): 24.41 and 17.7
- residual enzymatic activity relative to control wells (HDAC6; log[inhibitor(M)] -7.79588): 54.41 and 42.53
- residual enzymatic activity relative to control wells (HDAC6; log[inhibitor(M)] -8.49485): 80.22 and 64.16
- residual enzymatic activity relative to control wells (HDAC6; log[inhibitor(M)] -9.19382): 93.97 and 80.87
- residual enzymatic activity relative to control wells (HDAC6; log[inhibitor(M)] -9.89279): 97.61 and 89.51
- residual enzymatic activity relative to control wells (HDAC6; log[inhibitor(M)] -10.585): 98,6* and 92,44*
